Measurements as given in US8431888B2, “Electrospray and nanospray ionization of discrete samples in droplet format” (priority 2009, dated 2013).
Where two headings read alike, the source gives them in different places.

Legend:
AchE = conditions: read-out: previously reported IC50, cited from earlier work
[1] = target: T1, acetylcholinesterase (AchE) (Electrophorus electricus, UniProt O42275); test: biochemical; assay type: biochemical; conditions: for IC50: 10 inhibitor concentrations, 20 min at room temperature, choline formation, sigmoidal dose-response fit; for AchE inhibition in screen (choline production): compound tested at 100 μM, triplicate, peak area ratio of choline to internal standard
T1 construct: purchased Sigma (St. Louis, Mo.) Type VI-S (catalogue number not given)
T1 sequence (O42275 24-633): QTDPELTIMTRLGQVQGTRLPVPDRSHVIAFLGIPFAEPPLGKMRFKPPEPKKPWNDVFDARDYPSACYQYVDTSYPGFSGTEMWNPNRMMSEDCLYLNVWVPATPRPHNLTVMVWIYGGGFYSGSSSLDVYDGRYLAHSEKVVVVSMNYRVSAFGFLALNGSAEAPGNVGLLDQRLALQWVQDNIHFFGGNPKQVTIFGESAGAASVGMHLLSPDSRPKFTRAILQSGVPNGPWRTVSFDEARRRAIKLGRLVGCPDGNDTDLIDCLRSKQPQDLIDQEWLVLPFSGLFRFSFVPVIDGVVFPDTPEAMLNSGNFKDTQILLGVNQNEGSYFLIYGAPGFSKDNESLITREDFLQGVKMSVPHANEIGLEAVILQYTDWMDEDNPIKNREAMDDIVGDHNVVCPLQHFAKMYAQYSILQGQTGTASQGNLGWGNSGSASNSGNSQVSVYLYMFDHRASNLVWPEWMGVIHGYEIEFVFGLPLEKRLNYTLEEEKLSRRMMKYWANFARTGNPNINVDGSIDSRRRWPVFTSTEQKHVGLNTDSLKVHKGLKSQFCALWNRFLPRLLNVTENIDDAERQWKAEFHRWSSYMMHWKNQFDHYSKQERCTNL

[2] = literature values, experimental conditions not identical

| SMILES | IC50 (AchE) [µM] | IC50 [1] [µM] | IC50 (AchE; [2]) [µM] | AchE inhibition in screen (choline production) [1] |
| --- | --- | --- | --- | --- |
| CN(C)C(=O)Oc1cccc([N+](C)(C)C)c1 [neostigmine] | 0.0113 |  |  |  |
| CCOC(=O)CC(SP(=S)(OC)OC)C(=O)OCC (centres unmarked) [malathion] |  | 480 ± 70 | 370 |  |
| CC(C)NCC(O)c1ccc(O)c(O)c1 (centres unmarked) [isoproterenol] |  |  |  | some inhibition |
| CC[N+](C)(C)c1cccc(O)c1 [edrophonium] | 5.4 | 63 ± 11 |  |  |
| C[S+](C)[O-] [DMSO] |  |  |  | some inhibition |
